Measured values reported in patent US9718832B2, “Hexahydrofuropyrroles as PDE1 inhibitors” (H. Lundbeck A/S, priority 2014, dated 2017).

Columns and labels:
Assay type in all cases: biochemical
Conditions in all cases: 15 nM tritium labelled cAMP, 1 h at room temperature, SPA beads
PDE1C = PDE1C (Homo sapiens, UniProt Q14123); assay: PDE1 inhibition assay (PDE1C)
Procedure: (§1) PDE1A, PDE1B and PDE1C assays were performed as follows: the assays was performed in 60 μL samples containing a fixed amount of the PDE1 enzym1 (sufficient to convert 20-25% of the cyclic nucleotide substrate), a buffer (50 mM HEPES pH 7.6; 10 mM MgCl2; 0.02% Tween20), 0.1 mg/ml BSA, 15 nM tritium labelled cAMP and varying amounts of inhibitors. Reactions were initiated by addition of the cyclic nucleotide substrate, and reactions were allowed to proceed for 1 h at room temperature before being terminated through mixing with 20 μL (0.2 mg) yttrium silicate SPA beads (PerkinElmer). The beads were allowed to settle for 1 h in the dark before the plates were counted in a Wallac 1450 Microbeta counter. The measured signals were converted to activity relative to an uninhibited control (100%) and IC50 values were calculated using XIFit (model 205, IDBS).

PDE1B = PDE1B (Homo sapiens, UniProt Q01064); assay: PDE1 inhibition assay (PDE1B)
PDE1B, sequence (Q01064 whole entry): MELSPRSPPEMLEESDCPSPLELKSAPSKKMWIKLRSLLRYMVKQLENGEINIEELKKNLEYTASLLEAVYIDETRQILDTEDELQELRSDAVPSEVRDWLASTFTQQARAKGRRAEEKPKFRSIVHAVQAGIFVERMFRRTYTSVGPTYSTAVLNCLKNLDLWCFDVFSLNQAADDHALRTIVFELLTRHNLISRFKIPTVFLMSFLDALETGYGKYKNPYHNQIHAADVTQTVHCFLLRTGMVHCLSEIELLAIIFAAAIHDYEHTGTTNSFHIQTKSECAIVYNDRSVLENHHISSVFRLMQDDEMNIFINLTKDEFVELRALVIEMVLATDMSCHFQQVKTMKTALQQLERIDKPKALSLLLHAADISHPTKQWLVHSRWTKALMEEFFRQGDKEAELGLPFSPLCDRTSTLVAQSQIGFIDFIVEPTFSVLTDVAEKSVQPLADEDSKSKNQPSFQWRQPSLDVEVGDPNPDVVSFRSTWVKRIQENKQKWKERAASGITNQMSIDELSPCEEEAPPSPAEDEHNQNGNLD
Procedure: as §1

PDE1A = PDE1A (Homo sapiens, UniProt P54750); assay: PDE1 inhibition assay (PDE1A)
PDE1A, sequence (P54750 whole entry): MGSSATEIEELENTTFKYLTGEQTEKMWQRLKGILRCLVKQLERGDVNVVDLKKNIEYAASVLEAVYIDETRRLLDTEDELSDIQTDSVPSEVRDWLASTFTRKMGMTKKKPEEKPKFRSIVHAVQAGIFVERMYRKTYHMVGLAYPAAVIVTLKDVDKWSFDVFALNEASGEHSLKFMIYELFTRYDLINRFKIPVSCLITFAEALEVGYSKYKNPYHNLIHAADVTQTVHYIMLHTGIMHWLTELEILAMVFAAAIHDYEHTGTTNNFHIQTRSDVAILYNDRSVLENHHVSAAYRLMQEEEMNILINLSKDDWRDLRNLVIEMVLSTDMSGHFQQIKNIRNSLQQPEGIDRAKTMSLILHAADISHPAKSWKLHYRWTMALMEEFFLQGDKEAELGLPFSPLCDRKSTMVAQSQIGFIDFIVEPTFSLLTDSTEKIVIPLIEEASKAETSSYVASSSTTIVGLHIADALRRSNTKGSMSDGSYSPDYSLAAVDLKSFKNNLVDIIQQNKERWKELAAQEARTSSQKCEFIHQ
Procedure: as §1

PDE1C, sequence (Q14123 whole entry): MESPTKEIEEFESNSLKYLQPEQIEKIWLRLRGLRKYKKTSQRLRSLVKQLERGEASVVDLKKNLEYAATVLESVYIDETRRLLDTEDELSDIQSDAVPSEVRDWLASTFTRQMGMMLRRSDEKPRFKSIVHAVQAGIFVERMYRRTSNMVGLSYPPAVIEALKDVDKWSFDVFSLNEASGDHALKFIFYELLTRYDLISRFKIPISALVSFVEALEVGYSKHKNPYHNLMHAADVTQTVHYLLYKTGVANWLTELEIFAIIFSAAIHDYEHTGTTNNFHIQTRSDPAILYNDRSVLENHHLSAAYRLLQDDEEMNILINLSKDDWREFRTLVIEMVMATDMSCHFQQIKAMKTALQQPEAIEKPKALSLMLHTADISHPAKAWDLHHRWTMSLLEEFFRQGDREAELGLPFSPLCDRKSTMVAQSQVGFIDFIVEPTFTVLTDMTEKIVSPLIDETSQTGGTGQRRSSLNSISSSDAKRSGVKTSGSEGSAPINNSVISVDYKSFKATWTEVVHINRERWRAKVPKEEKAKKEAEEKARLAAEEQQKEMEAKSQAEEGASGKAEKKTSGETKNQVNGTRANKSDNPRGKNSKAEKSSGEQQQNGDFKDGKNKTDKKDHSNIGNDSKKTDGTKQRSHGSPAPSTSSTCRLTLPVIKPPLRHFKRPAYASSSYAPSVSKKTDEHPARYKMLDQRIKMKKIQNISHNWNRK

SMILES | IC50 (PDE1C) [nM] | IC50 (PDE1B) [nM] | IC50 (PDE1A) [nM]
COc1ccc2c(N3CC[C@@H]4OCC[C@@H]43)ncnc2c1OC (single isomer, unassigned) [Compound 1] | 120 | 120 | 160
COc1ccc2c(N3CC[C@H]4OCC[C@H]43)ncnc2c1OC (single isomer, unassigned) [Compound 2] | 2800 | 3700 | 3200
